Assay results from ChEMBL document CHEMBL1143883, “Fluoroolefins as amide bond mimics in dipeptidyl peptidase IV inhibitors” (Bioorg Med Chem Lett, 2008).

Key:
Liver microsomes [1] = test: Metabolic stability in human liver microsome assessed as covalent binding per mg of protein; assay type: ADME
Liver microsomes [2] = test: Metabolic stability in rat liver microsome assessed as covalent binding per mg of protein; assay type: ADME
[3] = Plasma clearance in rat at 1 mg/kg, iv or 2 mg/kg, po; assay type: ADME, organism-based
[4] = Metabolic stability in rat hepatocytes after 60 mins; assay type: ADME, cell-based, Hepatocyte; details: read-out: Stability
[5] = Half life in rat at 1 mg/kg, iv or 2 mg/kg, po; assay type: ADME, organism-based; details: in vivo
[6] = Metabolic stability in rat liver microsomes after 60 mins in presence of NADPH; assay type: ADME, Microsome; details: read-out: Stability
[7] = Oral bioavailability in rat at 2 mg/kg; assay type: ADME, organism-based; details: in vivo
[8] = Mean residence time in rat at 1 mg/kg, iv or 2 mg/kg, po; assay type: ADME, organism-based; details: in vivo
[9] = biological target: Voltage-gated inwardly rectifying potassium channel KCNH2 (Homo sapiens, UniProt Q12809)
Chain of Voltage-gated inwardly rectifying potassium channel KCNH2 (Q12809 whole entry): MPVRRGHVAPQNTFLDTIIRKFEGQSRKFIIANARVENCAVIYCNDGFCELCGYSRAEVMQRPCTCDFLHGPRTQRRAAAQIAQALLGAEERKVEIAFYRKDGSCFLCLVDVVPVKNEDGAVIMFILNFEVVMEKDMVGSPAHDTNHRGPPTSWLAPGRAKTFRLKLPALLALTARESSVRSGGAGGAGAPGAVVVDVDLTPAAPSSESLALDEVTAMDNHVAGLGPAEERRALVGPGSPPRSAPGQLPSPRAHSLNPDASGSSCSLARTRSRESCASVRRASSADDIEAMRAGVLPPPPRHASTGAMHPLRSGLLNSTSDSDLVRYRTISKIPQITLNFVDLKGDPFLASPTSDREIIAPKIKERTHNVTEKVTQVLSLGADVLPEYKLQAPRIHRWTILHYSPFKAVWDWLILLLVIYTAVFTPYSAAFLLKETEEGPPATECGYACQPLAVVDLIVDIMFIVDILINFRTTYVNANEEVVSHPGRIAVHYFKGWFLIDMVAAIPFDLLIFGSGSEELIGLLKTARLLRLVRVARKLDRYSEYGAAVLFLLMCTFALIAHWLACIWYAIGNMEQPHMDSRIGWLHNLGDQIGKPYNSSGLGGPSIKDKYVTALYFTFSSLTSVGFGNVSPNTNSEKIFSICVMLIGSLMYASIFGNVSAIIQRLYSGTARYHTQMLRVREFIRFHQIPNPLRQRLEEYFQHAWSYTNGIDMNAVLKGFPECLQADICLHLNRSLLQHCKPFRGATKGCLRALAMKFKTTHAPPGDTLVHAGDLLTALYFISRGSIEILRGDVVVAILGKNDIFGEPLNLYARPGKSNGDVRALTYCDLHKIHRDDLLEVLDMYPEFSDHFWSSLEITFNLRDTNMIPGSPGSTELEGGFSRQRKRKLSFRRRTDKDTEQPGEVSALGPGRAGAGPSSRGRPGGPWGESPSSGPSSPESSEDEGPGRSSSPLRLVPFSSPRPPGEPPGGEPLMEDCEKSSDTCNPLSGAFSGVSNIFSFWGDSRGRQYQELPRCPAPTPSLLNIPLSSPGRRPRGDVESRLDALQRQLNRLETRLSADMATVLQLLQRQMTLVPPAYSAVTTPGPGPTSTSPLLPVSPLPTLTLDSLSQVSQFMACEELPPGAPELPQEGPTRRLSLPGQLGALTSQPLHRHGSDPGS

Row | SMILES | Stability (Liver microsomes [1]) | Stability (Liver microsomes [2]) | clearance [3] | remaining at 1 h [4] | half-life [5] | remaining at 1 h [6] | bioavailability [7] | MRT [8] | IC50 [9]
1 | C[C@H](c1nc(-c2ccc(S(=O)(=O)C[14CH3])cc2Cl)no1)[C@H](N)C(F)=C1CCCC1.O=C(O)C(F)(F)F | 287 pmol/mg | 662 pmol/mg | – | – | – | – | – | – | –
2 | C[C@H](c1nc(-c2ccc(S(C)(=O)=O)cc2Cl)no1)[C@H](N)C(=O)N1CCCC1.O=C(O)C(F)(F)F | – | – | 6 mL/min/kg | 88% | 51.6 min | 56% | 27% | – | –
3 | CS(=O)(=O)c1ccc(-c2noc([C@@H](CC3CC3)[C@H](N)C(F)=C3CCCC3)n2)c(Cl)c1.O=C(O)C(F)(F)F | – | – | 54 mL/min/kg | – | 90 min | – | 1% | – | –
4 | CC(c1nc(-c2ccc(S(C)(=O)=O)cc2Cl)no1)[C@H](N)C(F)=C1CCCC1.O=C(O)C(F)(F)F (stereo partly drawn) | – | – | 20 mL/min/kg | 3% | – | – | 62% | 2 h | –
5 | CS(=O)(=O)c1ccc(-c2noc([C@@H](CCO)[C@H](N)C(F)=C3CCCC3)n2)c(Cl)c1.O=C(O)C(F)(F)F | – | – | 51 mL/min/kg | – | 96 min | – | 4% | – | 47 µM
